Source: article PMC5554137, “Evaluation of novel factor Xa inhibitors from Oxya chinensis sinuosa with anti-platelet aggregation activity” (Scientific Reports, 2017)

Tests used:
FXa = target: T1, FXa (Homo sapiens, UniProt P00742); assay: Chromogenic substrate assay, Ki determination, Factor Xa; assay type: biochemical; conditions: substrate S-2765 (Table 3); mean ± SD (n = 5)
T1 construct: purchased Haematologic Technologies (Essex Junction, VT, USA)
Method: (§1) The inhibitor (I) constants (Ki) were determined for the inhibition of a series of human enzymes (FXa, thrombin, trypsin, plasmin, protein Ca, streptokinase, tPA, and urokinase) by each compound. Chromogenic substrate assays were performed using a Labsystems IEMS (Cergy Pontoise, France) microtiter plate reader. In each assay, the compound was tested at a minimum of seven concentrations in duplicate to obtain an inhibition curve. Assays were performed according to the following general procedure. In a 96-well microtiter plate, 25 μL of compound, inhibitor solution or buffer was added to 50 μL of substrate. A volume of 25 μL of enzyme solution was added just before the plate was placed in the microtiter plate reader for 1 h at 37 °C. The hydrolysis of the substrate yields p-nitroaniline, which was continuously monitored spectrophotometrically at 405 nm. Data were collected and the initial rate of substrate hydrolysis [Vo (mOD/minute)] was calculated. Following Michaelis-Menten kinetics, the affinity of the enzyme for the substrate, in the absence of the inhibitor (Km) and in the presence of an inhibitor (Kp), was determined to be the negative inverse x-intercept of Lineweaver–Burk plots. The dissociation constant for inhibition (Ki) was calculated using the following equation: Ki = (Km·[I])/(Kp − Km) as described by Williams and Morrison[40].

α-Thrombin = target: T2, α-Thrombin (Homo sapiens, UniProt P00734); assay: Chromogenic substrate assay, Ki determination, α-Thrombin; assay type: biochemical; conditions: substrate S-2238
T2 construct: FXa converts prothrombin to thrombin; purchased Haematologic Technologies (Essex Junction, VT, USA)
Method: as §1

Trypsin = assay: Chromogenic substrate assay, Ki determination, Trypsin; assay type: biochemical, human; conditions: substrate S-2222
Method: as §1

Plasmin = Plasmin (Homo sapiens, UniProt P00747); assay: Chromogenic substrate assay, Ki determination, Plasmin; assay type: biochemical; conditions: substrate S-2251
Plasmin, sequence (P00747 581-810 limits assumed): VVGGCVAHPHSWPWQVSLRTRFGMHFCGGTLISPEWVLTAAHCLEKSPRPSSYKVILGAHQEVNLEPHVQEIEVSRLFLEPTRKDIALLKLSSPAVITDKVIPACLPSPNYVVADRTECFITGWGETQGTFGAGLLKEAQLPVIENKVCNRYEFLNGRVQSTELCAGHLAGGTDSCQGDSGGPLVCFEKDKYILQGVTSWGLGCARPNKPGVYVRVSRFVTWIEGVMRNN
Plasmin, sequence (P00747 97-580 limits assumed): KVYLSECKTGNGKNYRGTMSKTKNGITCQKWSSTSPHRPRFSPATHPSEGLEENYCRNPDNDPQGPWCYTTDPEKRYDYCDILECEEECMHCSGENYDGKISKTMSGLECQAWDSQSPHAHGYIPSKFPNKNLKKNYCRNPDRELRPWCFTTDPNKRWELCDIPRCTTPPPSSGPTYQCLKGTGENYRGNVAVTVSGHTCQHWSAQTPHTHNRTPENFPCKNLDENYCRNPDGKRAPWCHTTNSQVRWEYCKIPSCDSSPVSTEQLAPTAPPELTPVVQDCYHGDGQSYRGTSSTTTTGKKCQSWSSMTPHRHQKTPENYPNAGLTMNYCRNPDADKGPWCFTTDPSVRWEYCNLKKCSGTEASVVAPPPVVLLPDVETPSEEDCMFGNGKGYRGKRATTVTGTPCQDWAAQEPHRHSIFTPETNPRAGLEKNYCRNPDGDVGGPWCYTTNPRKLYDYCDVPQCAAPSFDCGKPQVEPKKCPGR
Method: as §1

Protein Ca = Protein Ca (Homo sapiens, UniProt P04070); assay: Chromogenic substrate assay, Ki determination, Protein Ca; assay type: biochemical; conditions: substrate S-2366
Protein Ca, sequence (P04070 212-461 limits assumed): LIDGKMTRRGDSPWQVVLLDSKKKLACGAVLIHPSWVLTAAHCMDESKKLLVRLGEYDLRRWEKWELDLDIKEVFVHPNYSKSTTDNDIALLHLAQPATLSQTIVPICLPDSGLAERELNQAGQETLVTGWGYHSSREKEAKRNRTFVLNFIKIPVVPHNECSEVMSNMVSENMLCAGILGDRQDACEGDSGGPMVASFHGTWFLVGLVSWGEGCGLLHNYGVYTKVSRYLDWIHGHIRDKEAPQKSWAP
Protein Ca, sequence (P04070 43-197 limits assumed): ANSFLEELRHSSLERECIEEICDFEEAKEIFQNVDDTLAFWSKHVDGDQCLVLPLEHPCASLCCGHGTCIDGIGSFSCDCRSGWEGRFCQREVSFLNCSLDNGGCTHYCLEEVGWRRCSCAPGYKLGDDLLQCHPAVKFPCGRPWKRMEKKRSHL
Method: as §1

[1] = target: Streptokinase (Homo sapiens); assay: Chromogenic substrate assay, Ki determination, Streptokinase; assay type: biochemical; conditions: substrate S-2251
Streptokinase (Homo sapiens), sequence (P00747 581-810 limits assumed): as the sequence (P00747 581-810 limits assumed) above
Method: as §1

tPA = tPA (Homo sapiens, UniProt P00750); assay: Chromogenic substrate assay, Ki determination, tPA; assay type: biochemical; conditions: substrate S-2228
tPA, sequence (P00750 36-562): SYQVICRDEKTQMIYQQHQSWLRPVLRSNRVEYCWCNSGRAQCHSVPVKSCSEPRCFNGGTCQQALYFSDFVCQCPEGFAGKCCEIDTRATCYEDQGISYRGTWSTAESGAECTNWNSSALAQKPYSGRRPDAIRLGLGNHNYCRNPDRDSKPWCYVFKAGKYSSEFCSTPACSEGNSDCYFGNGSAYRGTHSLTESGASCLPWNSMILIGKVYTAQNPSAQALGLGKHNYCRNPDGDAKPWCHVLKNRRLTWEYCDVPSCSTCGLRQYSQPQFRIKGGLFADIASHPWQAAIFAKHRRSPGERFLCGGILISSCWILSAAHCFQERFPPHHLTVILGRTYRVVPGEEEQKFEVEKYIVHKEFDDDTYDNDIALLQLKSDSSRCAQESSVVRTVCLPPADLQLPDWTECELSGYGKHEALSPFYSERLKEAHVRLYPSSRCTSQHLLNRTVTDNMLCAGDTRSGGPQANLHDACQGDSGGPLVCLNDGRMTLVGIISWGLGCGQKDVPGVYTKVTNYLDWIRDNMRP
Method: as §1

Urokinase = Urokinase (Homo sapiens, UniProt P00749); assay: Chromogenic substrate assay, Ki determination, Urokinase; assay type: biochemical; conditions: substrate S-2444
Method: as §1

C57BL/6 mice [2] = assay: Ex vivo coagulation assay, aPTT; assay type: in vivo, mouse; conditions: intravenous, 38 to 193 µg/kg
Method: (§2) To evaluate the effects of compounds 1–5 on coagulation parameters ex vivo, we measured the influence of the isolated compounds on activated partial thromboplastin time (aPTT) and prothrombin time (PT). […] The average circulating blood volume for mice is 72 mL/kg[21]. Because the average weight of mice used in this study was 27 g and the average blood volume was 2 mL, the dose of compounds 1–5 (38.6, 77.2, or 193.1 µg/kg) equaled a peripheral blood concentration of approximately 1, 2, and 5 µM, respectively.
Figure 4 Effects of compounds 1–4 on clotting and bleeding time. […] Fifteen minutes after the last administration, blood samples were collected and in vivo aPTT was measured. […] Accumulated bleeding times (including periods of re-bleeding) were recorded. […] Data are presented as means ± SD of three independent experiments. *p < 0.05 vs. vehicle alone, analyzed by one-way ANOVA, followed by Tukey multiple comparison testing.
Fifteen min after the administration of each compound or saline, blood was sampled, and plasma was obtained by centrifuging at 2,000 × g for 10 min at room temperature in order to measure prothrombin time (PT) and activated partial thromboplastin time (aPTT). The aPTT and PT were determined using a Thrombotimer (Behnk Elektronik, Norderstedt, Germany), according to the manufacturer’s instructions and as described previously. […] The clotting times were recorded. […]

C57BL/6 mice [3] = assay: In vivo clotting time (aPTT after four daily injections); design: species or system mouse; conditions: daily intravenous injection for four consecutive days
Method: as §2
Figure 4 Effects of compounds 1–4 on clotting and bleeding time. (A) One hour after administration (intravenous injection) of compound 1 (white box), 2 (light gray box), 3 (dark gray box), or 4 (black box), blood was collected from the mice and platelet-poor plasma (PPP) was obtained by centrifugation at 2,000 × g for 10 min at room temperature to test ex vivo activated partial thromboplastin time (aPTT). (B) Each group received a daily intravenous injection of the indicated compound for four consecutive days. Fifteen minutes after the last administration, blood samples were collected and in vivo aPTT was measured. […] Accumulated bleeding times (including periods of re-bleeding) were recorded. […] Data are presented as means ± SD of three independent experiments. *p < 0.05 vs. vehicle alone, analyzed by one-way ANOVA, followed by Tukey multiple comparison testing.

[4] = system: mouse platelet-rich plasma (PRP); assay: In vitro platelet aggregation induced by ADP; assay type: cell-based; conditions: ADP 10 µM
Method: (§3) To study the effects of compounds 1–5 on platelet aggregation, we used mouse platelet-rich plasma (PRP) induced with various agonists as an in vitro model.
(§4) Figure 5 Effects of compounds 1–4 on agonist-induced platelet aggregation in vitro. Platelet-rich plasma (PRP) was preincubated for 5 min with different concentrations of compounds 1–4, or vehicle. Platelet aggregation was initiated with ADP (A, 10 µM), U46619 (B, 6 µM), or thrombin (C, 3 U/mL). D = 0.2% DMSO used as the vehicle control. Data are presented as means ± SD of three independent experiments. ^* p < 0.05 vs. vehicle alone, analyzed by one-way ANOVA, followed by Tukey multiple comparison testing.
(§5) The in vitro platelet aggregation assay was performed according to a previously reported method, [39]. Platelet rich plasma (PRP) was incubated with the indicated concentration of each compound in DMSO for 1, 3, 5, or 10 min. Samples were subsequently stimulated by ADP (10 μM), U46619 (6 μM), or thrombin (3 U/mL). Platelet aggregation was recorded using an aggregometer (Chronolog, Havertown, PA, USA).

[5] = system: mouse platelet-rich plasma (PRP); assay: In vitro platelet aggregation induced by U46619; assay type: cell-based; conditions: U46619 6 µM
Method: as §3, §4, §5

[6] = system: mouse platelet-rich plasma (PRP); assay: In vitro platelet aggregation induced by thrombin; assay type: cell-based; conditions: thrombin 3 U/mL
Method: as §3, §4, §5

platelet aggregation = system: platelet aggregation; design: method as in PMID 20139357; conditions: cited from earlier work
thrombin = thrombin (Homo sapiens, UniProt P00734); design: method as in PMID 20139357; conditions: cited from earlier work
bleeding time models = system: bleeding time models; design: method as in PMID 20139357, PMID 15748242; conditions: antithrombotic doses below the ED50 required for antithrombotic efficacy; cited from earlier work
rat = system: rat; design: method as in PMID 20139357, PMID 15748242; conditions: higher doses, rat tail-bleeding time model; cited from earlier work
C57BL/6 mice [7] = assay: FeCl3-induced arterial thrombosis mouse model; assay type: in vivo; conditions: FeCl3 injury, tirofiban 0.2 or 0.4 mg/kg (dose for this value not stated)

T1 sequence (P00742 235-488 limits assumed): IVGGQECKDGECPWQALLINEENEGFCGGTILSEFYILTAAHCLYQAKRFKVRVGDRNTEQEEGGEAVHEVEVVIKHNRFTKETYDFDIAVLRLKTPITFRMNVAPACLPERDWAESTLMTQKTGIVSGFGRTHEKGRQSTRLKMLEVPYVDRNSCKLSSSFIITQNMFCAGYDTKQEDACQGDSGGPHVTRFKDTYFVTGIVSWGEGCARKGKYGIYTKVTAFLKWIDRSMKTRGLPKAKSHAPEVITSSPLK
T1 sequence (P00742 41-179 limits assumed): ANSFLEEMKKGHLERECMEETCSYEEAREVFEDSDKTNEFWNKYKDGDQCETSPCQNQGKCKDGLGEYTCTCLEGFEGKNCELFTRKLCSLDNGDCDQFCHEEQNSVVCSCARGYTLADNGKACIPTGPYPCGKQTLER

## CC(=O)N/C=C/c1ccc2c(c1)O[C@H](c1ccc(O)c(O)c1)[C@@H](NC(C)=O)O2 [Compound 5, (2 R,3 S)-2-(3′,4′-dihydroxyphenyl)-3-acetylamino-7-(N-acetyl-2″-aminethylene)-1,4-benzodioxane]
FXa
  Ki: > 250 µM
α-Thrombin
  Ki: > 250 µM
Trypsin
  Ki: > 250 µM
Plasmin
  Ki: > 250 µM
Protein Ca
  Ki: > 250 µM
[1]
  Ki: > 250 µM
tPA
  Ki: > 250 µM
Urokinase
  Ki: > 250 µM
C57BL/6 mice [2]
  activated partial thromboplastin time (aPTT), ex vivo: did not affect
C57BL/6 mice [3]
  blood clotting time in vivo (anticoagulant effect): not
[4]
  platelet aggregation induced by ADP: did not affect
[5]
  platelet aggregation induced by U46619: did not affect
[6]
  thrombin-induced platelet aggregation: did not affect

## O=C(NC[C@H]1CN(c2ccc(N3CCOCC3=O)cc2)C(=O)O1)c1ccc(Cl)s1 [rivaroxaban]
Platelet aggregation
  platelet aggregation induced by ADP, thrombin, or U46619: did not affect
thrombin
  generation of thrombin: prolonged
Bleeding time models
  bleeding times: not significantly affected
rat
  bleeding times: dose-dependently prolonged

## CCCCS(=O)(=O)N[C@@H](Cc1ccc(OCCCCC2CCNCC2)cc1)C(=O)O [tirofiban]
C57BL/6 mice [7]
  time to growth of large thrombi: 61.1 ± 5.1 min
